The record followed here is patent US20260297042A1, “BIARYLAMIDE DERIVATIVES AND THEIR USE AS PKMYT1 INHIBITORS” (CANCER RESEARCH TECHNOLOGY LIMITED, priority 2023, published 2026).

Where a name gives a salt, the structure may show the parent alone.

The target of one experiment is T1, WEE1 (Homo sapiens, UniProt P30291).
T1 construct: purchased Thermo Fisher PR7373A
The experiment in a line: Selectivity versus WEE1 assay (ADP-Glo enzymatic assay). The class given is biochemical. The note with it: for IC50: ADP-Glo; for PKMYT1 vs. WEE1 selectivity: fold difference in selectivity for PKMYT1 over WEE1. As for the experimental part: Selectivity versus WEE1 assay: Selectivity was established using the same format as outlined for PKMYT1. After dosing of compounds via the Echo acoustic dispenser—as described above—WEE1 (Thermo Fisher PR7373A) was added to each well at a final concentration of 15 nM in a buffer of 50 mM HEPES (pH 7.5), 10 mM MgCl2, 1 mM EGTA, 0.01% Brij-35, 1% DMSO. 30 µM ATP was added to start the reaction with the final assay volume being 4 μl. The plate was then incubated for 60 minutes at 26° C. before the addition of 4 μl of ADP-Glo Reagent. Following a further 60 minute incubation the assay signal was developed by the addition of 8 μl ADP-Glo Detection Reagent. After 60 minutes the luminescence signal was read on a PHERAStar FS microplate reader (BMG Labtech).
(§1) Data analysis: Data was captured and analysed within the Dotmatics Studies software module where dose response curves were generated and IC50 values determined. Acceptance and verification of data followed strict in-house business rules which are summarised as follows. […] Technical and biological replicates of each compound are routinely tested and replicate IC50 values must fall within 3-fold of each other with dose response curves showing ‘goodness of fit’ r2 values >0.9. Failure to meet any of these defined criteria result in rejection of data.

A further experiment concerns the target T2, Human PKMYT1 (Homo sapiens, UniProt Q99640).
T2 construct: Human PKMYT1 75-362 was cloned as a TEV cleavable 6xHis fusion; 6xHis (TEV cleavable) (cleaved yes); made in house; host or cells: bacterial cells
T2 sequence (Q99640 75-362): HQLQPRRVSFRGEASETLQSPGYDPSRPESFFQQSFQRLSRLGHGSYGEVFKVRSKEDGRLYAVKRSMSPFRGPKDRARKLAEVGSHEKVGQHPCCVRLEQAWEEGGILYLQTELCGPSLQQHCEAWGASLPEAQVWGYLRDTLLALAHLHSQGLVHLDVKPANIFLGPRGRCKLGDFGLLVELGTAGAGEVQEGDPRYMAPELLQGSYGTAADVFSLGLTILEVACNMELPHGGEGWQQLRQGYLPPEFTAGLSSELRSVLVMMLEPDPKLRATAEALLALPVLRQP
The experiment in a line: PKMYT1 biochemical ADP-Glo enzymatic assay. As to conditions: ADP-Glo. As for the experimental part: Human PKMYT1 75-362 was cloned as a TEV cleavable 6xHis fusion in bacterial cells. After purification on a Ni++HiTrap Chelating HP column, the His-tag was cleaved using TEV protease. Cleaved PKMYT1 was further purified on a Superdex 200 16/600 sizing column. The fractions containing PKMYT1 were pooled and concentrated using an ultrafiltration centrifugal protein concentrator. The purified protein was aliquoted, flash frozen in liquid nitrogen, and stored at −80° C.
PKMYT1 biochemical assay: Inhibition of PKMYT1 was assessed using the ADP-Glo™ Max Detection System from Promega. This assay detects the production of ADP from ATP by PKMYT1 via a two-step process ultimately involving the conversion of ADP to ATP with the latter converted to light in a coupled reaction with luciferase/luciferin. Inhibition of PKMYT1 by small molecule inhibitors results in a retardation of luminescence above background. The intrinsic ATPase activity of PKMYT1 was assessed according to the following protocol. Compounds were dosed into Corning white low volume 384 well assay plates using an Echo acoustic dispenser to generate 10-point curves spanning a 3-fold dilution series. DMSO (no inhibitor) control wells were prepared to benchmark the maximum and minimum signals in the presence and absence of PKMYT1, respectively. The PKMYT1 kinase domain was purified in-house, as described above, and added to the wells at a final concentration of 15 nM in a buffer of 50 mM HEPES (pH 7.5), 10 mM MgCl2, 1 mM EGTA, 0.01% Brij-35, 1% DMSO. 500 µM ATP was added to start the reaction with the final assay volume being 4 μl. The plate was then incubated for 60 minutes at 26° C. before the addition of 4 μl of ADP-Glo Reagent to stop the reaction and deplete the unconsumed ATP. Following a further 60 minute incubation the assay signal was developed by the addition of 8 μl ADP-Glo Max Detection Reagent. After 60 minutes the luminescence signal was read on a PHERAStar FS microplate reader (BMG Labtech).
as §1
On the technique in general: In ADP-Glo the light output rises with the ADP produced.

The mark [1] stands for this setting: 15 nM WEE1, 60 minutes at 26° C., banded.
[2] abbreviates: banded, ">N" = at least in this band but could be higher.
Setting [3] is: 15 nM PKMYT1 kinase domain, 500 µM ATP, 60 minutes at 26° C., banded.
The mark [4] stands for this setting: PKMYT1 kinase domain 15 nM, banded values.

T1 sequence (P30291 whole entry): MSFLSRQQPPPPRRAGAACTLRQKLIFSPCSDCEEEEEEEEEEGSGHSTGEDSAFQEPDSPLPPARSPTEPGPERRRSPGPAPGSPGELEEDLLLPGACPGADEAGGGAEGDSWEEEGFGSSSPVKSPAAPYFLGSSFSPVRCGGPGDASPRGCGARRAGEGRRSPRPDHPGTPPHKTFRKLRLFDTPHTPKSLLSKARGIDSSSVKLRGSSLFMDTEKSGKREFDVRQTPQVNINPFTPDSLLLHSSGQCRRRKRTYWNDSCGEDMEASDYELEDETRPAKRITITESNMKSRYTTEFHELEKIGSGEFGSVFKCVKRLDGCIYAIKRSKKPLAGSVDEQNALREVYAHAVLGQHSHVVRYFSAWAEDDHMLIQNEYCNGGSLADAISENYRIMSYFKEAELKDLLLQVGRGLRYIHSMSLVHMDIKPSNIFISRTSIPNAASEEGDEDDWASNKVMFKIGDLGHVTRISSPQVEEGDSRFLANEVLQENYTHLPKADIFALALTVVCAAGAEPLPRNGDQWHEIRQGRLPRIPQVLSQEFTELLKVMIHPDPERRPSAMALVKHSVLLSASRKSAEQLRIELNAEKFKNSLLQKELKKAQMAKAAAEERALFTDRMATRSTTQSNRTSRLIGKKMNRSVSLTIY

Broadly, the IC50 is the concentration needed to halve the response being measured. As for `Cc1cn(CC(=O)N2CCC2)nc1Nc1ncc(C(=O)Nc2c(C)ccc(O)c2C)s1` [BAA-374, 2-((1-(2-(azetidin-1-yl)-2-oxoethyl)-4-methyl-1H-pyrazol-3-yl)amino)-N-(3-hydroxy-2,6-dimethylphenyl)thiazole-5-carboxamide], the IC50 at WEE1 (setting [1]) was 1 to 11 µM; against Human PKMYT1 (setting [3]) it was less than 0.05 µM. For the same compound, the “PKMYT1 vs. WEE1 selectivity” value at WEE1 (setting [2]) is recorded as “X (100-<1000 fold)”.
The matching figures for `Cc1ccc(O)c(C)c1NC(=O)c1cnc(Nc2ccn([C@@H]3CCNC3)n2)s1` [BAA-056, N-(3-hydroxy-2,6-dimethyl-phenyl)-2-[[1-[(3R)-pyrrolidin-3-yl]pyrazol-3-yl]amino]thiazole-5-carboxamide hydrochloride]: more than 11 µM, 0.05 to 1 µM and “X (100-<1000 fold)”.
Consider `Cc1cn(C)nc1Nc1nnc(C(=O)Nc2c(C)ccc(O)c2C)s1` [BAA-465, 5-((1,4-dimethyl-1H-pyrazol-3-yl)amino)-N-(3-hydroxy-2,6-dimethylphenyl)-1,3,4-thiadiazole-2-carboxamide], for which the IC50 against WEE1 (WEE1 15 nM, banded values) is more than 11 µM; on Human PKMYT1 (setting [4]) it was less than 0.05 µM. Moreover, the “PKMYT1 vs. WEE1 selectivity” value on WEE1 (banded) is reported as “Y (1000-5000 fold)”.
Turning to `Cc1ccc(O)c(C)c1NC(=O)c1cnc(Nc2ccn(CC(=O)N3CC4CCC(C3)N4C(=O)OC(C)(C)C)n2)s1` [BAA-180], the IC50 was more than 11 µM against WEE1 (setting [1]) and less than 0.05 µM against Human PKMYT1 (setting [3]). For the same compound, the “PKMYT1 vs. WEE1 selectivity” value at WEE1 (setting [2]) is “Y (1000-5000 fold)”.
In the same order, the values of `Cc1ccc(O)c(C)c1NC(=O)c1cnc(N[C@H](C)c2ccccc2)s1` [BAA-354, (R)-N-(3-hydroxy-2,6-dimethylphenyl)-2-((1-phenylethyl)amino) thiazole-5-carboxamide] are more than 11 µM, 1 to 11 µM and “W (10-<100 fold)”.
As to `Cc1ccc(O)c(C)c1NC(=O)c1cnc(Nc2nc(C(F)(F)F)cs2)s1` [BAA-017], the IC50 was more than 11 µM at WEE1 (setting [1]) and 0.05 to 1 µM at Human PKMYT1 (setting [3]). In addition, the “PKMYT1 vs. WEE1 selectivity” value at WEE1 (setting [2]) was “>X (100-<1000 fold)”.
In the case of `Cc1ccc(O)c(C)c1NC(=O)c1cnc(Nc2ccn(CC(=O)NCC(C)(C)O)n2)s1` [BAA-146], the IC50 is more than 11 µM at WEE1 (setting [1]) and less than 0.05 µM against Human PKMYT1 (setting [3]). For the same compound, the “PKMYT1 vs. WEE1 selectivity” value on WEE1 (setting [2]) is listed as “Y (1000-5000 fold)”.
For `Cc1ccc(O)c(C)c1NC(=O)c1cnc(Nc2ccccc2C2CC2)s1` [BAA-526, 2-((2-cyclopropylphenyl)amino)-N-(3-hydroxy-2,6-dimethylphenyl)thiazole-5-carboxamide], the IC50 is more than 11 µM against WEE1 (WEE1 15 nM, banded values) and 0.05 to 1 µM at Human PKMYT1 (setting [4]). On WEE1 (banded), the “PKMYT1 vs. WEE1 selectivity” value was “X (100-<1000 fold)”.
In the case of `CCC(=O)N1CCC(CNc2ncc(C(=O)Nc3c(C)ccc(O)c3C)s2)CC1` [BAA-077, N-(3-hydroxy-2,6-dimethyl-phenyl)-2-[(1-propanoyl-4-piperidyl)methylamino]thiazole-5-carboxamide], the 50% inhibitory concentration (IC50) against WEE1 (setting [1]) is more than 11 µM; against Human PKMYT1 (setting [3]) it was 0.05 to 1 µM. The “PKMYT1 vs. WEE1 selectivity” value on WEE1 (setting [2]) was “>X (100-<1000 fold)”.
In the same order, the values of `Cc1ccc(O)c(C)c1NC(=O)c1cnc(Nc2cc3cc(F)ccc3cn2)s1` [BAA-290, 2-((6-fluoroisoquinolin-3-yl)amino)-N-(3-hydroxy-2,6-dimethylphenyl)thiazole-5-carboxamide] are more than 11 µM, 0.05 to 1 µM and “X (100-<1000 fold)”.
In the same order, the values of `Cc1nnc(Nc2ncc(C(=O)Nc3c(C)ccc(O)c3C)s2)o1` [BAA-258, N-(3-hydroxy-2,6-dimethylphenyl)-2-((5-methyl-1,3,4-oxadiazol-2-yl)amino)thiazole-5-carboxamide] are more than 11 µM, 1 to 11 µM and “W (10-<100 fold)”.
In the same order, the values of `Cc1ccc(O)c(C)c1NC(=O)c1cnc(Nc2nn(-c3ccccc3)cc2C#N)s1` [BAA-389, 2-((4-cyano-1-phenyl-1H-pyrazol-3-yl)amino)-N-(3-hydroxy-2,6-dimethylphenyl)thiazole-5-carboxamide] are more than 11 µM, less than 0.05 µM and “Y (1000-5000 fold)”.
`Cc1ccc(O)c(C)c1NC(=O)c1cnc(Nc2cccc(S(=O)(=O)N3CC(F)(F)C(F)(F)C3)c2)s1` [BAA-286, N-(3-hydroxy-2,6-dimethylphenyl)-2-((3-((3,3,4,4-tetrafluoropyrrolidin-1-yl)sulfonyl)phenyl)amino)thiazole-5-carboxamide]: the IC50 at WEE1 (setting [1]) is more than 11 µM; on Human PKMYT1 (setting [3]) it was 1 to 11 µM. At WEE1 (setting [2]), the “PKMYT1 vs. WEE1 selectivity” value is reported as “W (10-<100 fold)”.
For `Cc1ccc(O)c(C)c1NC(=O)c1cnc(Nc2ccn(CC(=O)NC(C)(C)CO)n2)s1` [BAA-138, 2-[1-[2-[(2-hydroxy-1,1-dimethyl-ethyl)amino]-2-oxo-ethyl]pyrazol-3-ylJamino]-N-(3-hydroxy-2,6-dimethyl-phenyl)thiazole-5-carboxamide], the results for the IC50 against WEE1 (setting [1]) and at Human PKMYT1 (setting [3]) were more than 11 µM and 0.05 to 1 µM, respectively. The “PKMYT1 vs. WEE1 selectivity” value at WEE1 (setting [2]) is recorded as “X (100-<1000 fold)”.
The matching figures for `Cc1cn(CC(=O)N2CCN(C)CC2)nc1Nc1ncc(C(=O)Nc2c(C)ccc(O)c2C)s1` [BAA-205, N-(3-hydroxy-2,6-dimethyl-phenyl)-2-[[4-methyl-1-[2-(4-methylpiperazin-1-yl)-2-oxo-ethyl]pyrazol-3-yl]amino]thiazole-5-carboxamide]: more than 11 µM, less than 0.05 µM and “Y (1000-5000 fold)”.
In the same order, the values of `Cc1ccc(O)c(C)c1NC(=O)c1cnc(Nc2ccn(C3CCCOC3)n2)s1` (centres unmarked) [BAA-036, N-(3-hydroxy-2,6-dimethyl-phenyl)-2-[(1-tetrahydropyran-3-ylpyrazol-3-yl)amino]thiazole-5-carboxamide] are more than 11 µM, less than 0.05 µM and “Z (>5000 fold)”.
As to `Cc1ccc(O)c(C)c1NC(=O)c1cnc(Nc2ccc3c(c2)NC(=O)CO3)s1` [BAA-515, N-(3-hydroxy-2,6-dimethylphenyl)-2-((3-oxo-3,4-dihydro-2H-benzo[b][1,4]oxazin-6-yl)amino)thiazole-5-carboxamide], the IC50 was 1 to 11 µM against WEE1 (WEE1 15 nM, banded values) and less than 0.05 µM on Human PKMYT1 (setting [4]). The “PKMYT1 vs. WEE1 selectivity” value on WEE1 (banded) is on record as “X (100-<1000 fold)”.
`Cc1ccc(O)c(C)c1NC(=O)c1cnc(Nc2ccn(CC(=O)N3CCCCC3)n2)s1` [BAA-149, N-(3-hydroxy-2,6-dimethyl-phenyl)-2-[[1-[2-oxo-2-(1-piperidyl)ethyl]pyrazol-3-yl]amino]thiazole-5-carboxamide]: the IC50 is more than 11 µM on WEE1 (setting [1]) and less than 0.05 µM at Human PKMYT1 (setting [3]). In addition, the “PKMYT1 vs. WEE1 selectivity” value at WEE1 (setting [2]) was “Y (1000-5000 fold)”.
With `CCOC(=O)c1coc(Nc2ncc(C(=O)Nc3c(C)ccc(O)c3C)s2)n1` [BAA-045], on Human PKMYT1 (setting [3]), the IC50 was in the range of 0.05 to 1 µM.
The same measure, in the same setting: the same measure for `Cc1ccc(O)c(C)c1NC(=O)c1cnc(Nc2ccn(CC(=O)NC[C@H](C)O)n2)s1` [BAA-174]: 0.05 to 1 µM.
